# Target: Phosphodiesterase 4 (Cavia porcellus)
# Test: Inhibitory activity against (PDE IV) phosphodiesterase IV in guinea pig articular tissue
row,Compound,IC50 [µM]
1,c1ccc(CNc2nc(CN3CCCCC3)nc3ccsc23)cc1,65
2,c1ccc(CNc2nc(CCCCOc3ccccc3)nc3ccsc23)cc1,4.7
3,CCCCc1nc(NCc2ccccc2)c2occc2n1,1.1
